Results reported in paper PMC10584170, “Machine learning-based phenotypic imaging to characterise the targetable biology of Plasmodium falciparum male gametocytes for the development of transmission-blocking antimalarials” (PLOS Pathogens, 2023).
Read-outs that look alike come from different tables or passages of the source.

Tests used:
[1] = system: HepG2 cells; assay: HepG2 cytotoxicity counter-screen; conditions: cytotoxic activity against HepG2 cells
[2] = system: P. falciparum female gametocytes; assay: P. falciparum Dual Gamete Formation Assay (PfDGFA), female readout (Pfs25-positive female gametes); format: cell-based, Plasmodium falciparum NF54; conditions: for Selectivity ratio F: HepG2 Tox50 versus female IC50; for inhibition at 2 µM / Average inhibition female (%) / % inhibition female (individual replicates) R1 / % inhibition female (individual replicates) R3 / % inhibition female (individual replicates) R4: 24h preincubation with gametocytes; for IC50: PfDGFA, 24 h incubation with gametocytes before induction, female gamete readout, read-out: Female IC50; for HitlevelF: number of replicates with >50% inhibition in the female readout
How it was run: (§1)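 First, day-14 P. falciparum NF54 gametocytes receive compound for 24 h at 37°C in 1% O2/3% CO2. Next, ookinete medium with Cy3 anti-Pfs25 triggers gametogenesis at 28°C and male exflagellation is imaged. Finally, after 24 h in the dark, Cy3-labelled females are imaged.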

[3] = system: P. falciparum male gametocytes; assay: P. falciparum Dual Gamete Formation Assay (PfDGFA), male readout (exflagellation); format: cell-based, Plasmodium falciparum NF54; conditions: for Selectivity Ratio M: HepG2 Tox50 versus male IC50; for inhibition at 2 µM / Average inhibition male (%) / % inhibition male (individual replicates) R1 / % inhibition male (individual replicates) R3 / % inhibition male (individual replicates) R4: 24h preincubation with gametocytes; for IC50: PfDGFA, 24 h incubation with gametocytes before induction, exflagellation readout, read-out: Male IC50; for HitlevelM: number of replicates with >50% inhibition in the male readout
How it was run: as §1

[4] = PfDGFA at 2µM, average of replicates

Row | SMILES | Tox50 [1] | Selectivity ratio F [2] | Selectivity Ratio M [3] | Average inhibition female (%) [2, 4] | % inhibition female (individual replicates) R1 ([2]; PfDGFA at 2µM, replicate R1) | % inhibition female (individual replicates) R3 ([2]; PfDGFA at 2µM, replicate R3) | % inhibition female (individual replicates) R4 ([2]; PfDGFA at 2µM, replicate R4) | IC50 [2] | HitlevelF ([2]; 2µM) | Average inhibition male (%) [3, 4] | % inhibition male (individual replicates) R1 ([3]; PfDGFA at 2µM, replicate R1) | % inhibition male (individual replicates) R3 ([3]; PfDGFA at 2µM, replicate R3) | % inhibition male (individual replicates) R4 ([3]; PfDGFA at 2µM, replicate R4) | IC50 [3] | HitlevelM ([3]; 2µM) | Average inhibition female (%) ([2]; 2µM, average of replicates) | % inhibition female (individual replicates) R1 ([2]; 2µM, replicate R1) | % inhibition female (individual replicates) R3 ([2]; 2µM, replicate R3) | % inhibition female (individual replicates) R4 ([2]; 2µM, replicate R4) | Average inhibition male (%) ([3]; 2µM, average of replicates) | further results
1 | Br.c1cc(C2=NC3CCCCC3N2)ccc1OCCCOc1ccc(C2=NC3CCCCC3N2)cc1 (stereo not shown) [TCMDC-137803] | 36.78 µM | 3.68 | 32.57 | – | – | – | – | – | – | – | – | – | – | – | – | – | – | – | – | – | inhibition at 2 µM ([2]; Plasmodium falciparum, 2µM, average of replicates, read-out: Average inhibition female (%)): 39.4%; inhibition at 2 µM ([2]; Plasmodium falciparum, 2µM, replicate R1, read-out: % inhibition female (individual replicates) R1): 33.6%; inhibition at 2 µM ([2]; Plasmodium falciparum, 2µM, replicate R2, read-out: % inhibition female (individual replicates) R2): 49.2%; inhibition at 2 µM ([2]; Plasmodium falciparum, 2µM, replicate R3, read-out: % inhibition female (individual replicates) R3): 5.9%; inhibition at 2 µM ([2]; Plasmodium falciparum, 2µM, replicate R4, read-out: % inhibition female (individual replicates) R4): 68.9%; IC50 ([2]; Plasmodium falciparum): > 10000 nM; inhibition at 2 µM ([3]; Plasmodium falciparum, 2µM, average of replicates, read-out: Average inhibition male (%)): 96.1%; inhibition at 2 µM ([3]; Plasmodium falciparum, 2µM, replicate R1, read-out: % inhibition male (individual replicates) R1): 93.1%; inhibition at 2 µM ([3]; Plasmodium falciparum, 2µM, replicate R2, read-out: % inhibition male (individual replicates) R2): 96.3%; inhibition at 2 µM ([3]; Plasmodium falciparum, 2µM, replicate R3, read-out: % inhibition male (individual replicates) R3): 92.1%; inhibition at 2 µM ([3]; Plasmodium falciparum, 2µM, replicate R4, read-out: % inhibition male (individual replicates) R4): 103%; IC50 ([3]; Plasmodium falciparum): 1130 nM
2 | Nc1nc(N)c2c(ccc3c2ccn3Cc2ccc3c(c2)OCO3)n1 [TCMDC-137808] | 0.15 µM | 0.18 | 0.19 | 83.7% | 77.5% | 80.4% | 88.7% | 840 nM | 4 | 70.0% | 66.3% | 77.8% | 76.3% | 760 nM | 4 | – | – | – | – | – | –
3 | Nc1nc(N)c2c(ccc3c2ccn3Cc2ccc(-c3ccccc3)cc2)n1 [TCMDC-137813] | 0.46 µM | 0.44 | 0.97 | 90.5% | 93.6% | 92.9% | 90.8% | 1030 nM | 4 | 70.1% | 91.2% | 64.2% | 76.3% | 470 nM | 3 | – | – | – | – | – | –
4 | C#CCCOc1ccc2ccccc2c1CNCCCCCCNCc1c(OCCC#C)ccc2ccccc12 [TCMDC-137832] | 3.94 µM | 1.37 | 2.13 | 22.9% | 24.2% | 11.7% | 20.0% | 2880 nM | 0 | 78.9% | 82.1% | 58.7% | 86.2% | 1850 nM | 4 | – | – | – | – | – | –
5 | CS(=O)(=O)O.FC(F)(F)COc1c(CNCCCCCCNCc2ccc3ccccc3c2OCC(F)(F)F)ccc2ccccc12 [TCMDC-137833] | 3.32 µM | 0.51 | 1.9 | 29.5% | 27.4% | 10.4% | 40.2% | 6570 nM | 0 | 69.2% | 70.5% | 47.4% | 77.6% | 1750 nM | 3 | – | – | – | – | – | –
6 | CS(=O)(=O)O.c1ccc2c(CNCCCCCCNCc3c(OCC4CC4)ccc4ccccc34)c(OCC3CC3)ccc2c1 [TCMDC-137839] | 3.2 µM | 1.36 | 2.29 | – | – | – | – | 2360 nM | – | – | – | – | – | 1400 nM | – | 78.7% | 59.7% | 91.2% | 88.3% | 95.2% | % inhibition male (individual replicates) R1 ([3]; 2µM, replicate R1): 96.4%; % inhibition male (individual replicates) R3 ([3]; 2µM, replicate R3): 98.9%; % inhibition male (individual replicates) R4 ([3]; 2µM, replicate R4): 103.0%
7 | Nc1nc(N)c2c(ccc3[nH]c(-c4ccccc4Cl)nc32)n1 [TCMDC-137840] | 2.04 µM | 0.88 | 2.01 | – | – | – | – | 2320 nM | – | – | – | – | – | 1020 nM | – | 54.2% | 66.8% | 50.3% | 52.5% | 99.1% | % inhibition male (individual replicates) R1 ([3]; 2µM, replicate R1): 101.1%; % inhibition male (individual replicates) R3 ([3]; 2µM, replicate R3): 94.6%; % inhibition male (individual replicates) R4 ([3]; 2µM, replicate R4): 101.3%
8 | COc1cc2ccccc2c(OC)c1CNCCCCCCNCc1c(OC)cc2ccccc2c1OC.CS(=O)(=O)O [TCMDC-137843] | 3.59 µM | 0.88 | 2.16 | 38.4% | 31.9% | 18.8% | 37.8% | 4090 nM | 1 | 82.6% | 82.1% | 58.2% | 98.9% | 1660 nM | 4 | – | – | – | – | – | –
9 | CCCCOc1c(CCNCCCCNCCc2cc(OC)c3ccccc3c2OCCCC)cc(OC)c2ccccc12.CS(=O)(=O)O [TCMDC-137848] | 3.16 µM | 2.45 | 2.01 | 42.4% | 32.5% | 23.0% | 45.3% | 1290 nM | 1 | 82.6% | 89.8% | 50.4% | 92.9% | 1570 nM | 4 | – | – | – | – | – | –
10 | CS(=O)(=O)O.FC(F)(F)COc1ccc(CNCCCCCCNCc2ccc(OCC(F)(F)F)c3ccccc23)c2ccccc12 [TCMDC-137853] | 1.26 µM | 2.44 | 4.06 | – | – | – | – | 520 nM | – | – | – | – | – | 310 nM | – | 50.4% | 38.4% | 35.3% | 42.3% | 98.2% | % inhibition male (individual replicates) R1 ([3]; 2µM, replicate R1): 97.9%; % inhibition male (individual replicates) R3 ([3]; 2µM, replicate R3): 96.8%; % inhibition male (individual replicates) R4 ([3]; 2µM, replicate R4): 101.6%
11 | COc1c(CCNCCCCNCCc2cc(Cl)c3ccccc3c2OC)cc(Cl)c2ccccc12.CS(=O)(=O)O [TCMDC-137869] | 2.99 µM | 2.39 | 3.25 | – | – | – | – | 1250 nM | – | – | – | – | – | 920 nM | – | 93.4% | 93.5% | 100.2% | 88.2% | 96.4% | % inhibition male (individual replicates) R1 ([3]; 2µM, replicate R1): 99.7%; % inhibition male (individual replicates) R3 ([3]; 2µM, replicate R3): 90.8%; % inhibition male (individual replicates) R4 ([3]; 2µM, replicate R4): 101.9%
